Measurements published in ChEMBL document CHEMBL1201862, “PubChem BioAssay data set” (2004).
Calls of active or inactive are those of the source.

Legend:
[1] = target: T1, Heat shock factor protein 1 (Mus musculus, UniProt P38532); assay: enhancement of HSF1-driven luciferase signal – cell-based, NIH3T3, luminescence, dose retest, confirmation (AID 435004); format: functional;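 note: stress induced by proteasome inhibitor MG132 added 30 min after compound; luciferase reporter driven by HSF1 response element in NIH3T3 cells; actives raise luminescence as potentiators of the MG132 stress response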
T1 sequence (P38532 whole entry): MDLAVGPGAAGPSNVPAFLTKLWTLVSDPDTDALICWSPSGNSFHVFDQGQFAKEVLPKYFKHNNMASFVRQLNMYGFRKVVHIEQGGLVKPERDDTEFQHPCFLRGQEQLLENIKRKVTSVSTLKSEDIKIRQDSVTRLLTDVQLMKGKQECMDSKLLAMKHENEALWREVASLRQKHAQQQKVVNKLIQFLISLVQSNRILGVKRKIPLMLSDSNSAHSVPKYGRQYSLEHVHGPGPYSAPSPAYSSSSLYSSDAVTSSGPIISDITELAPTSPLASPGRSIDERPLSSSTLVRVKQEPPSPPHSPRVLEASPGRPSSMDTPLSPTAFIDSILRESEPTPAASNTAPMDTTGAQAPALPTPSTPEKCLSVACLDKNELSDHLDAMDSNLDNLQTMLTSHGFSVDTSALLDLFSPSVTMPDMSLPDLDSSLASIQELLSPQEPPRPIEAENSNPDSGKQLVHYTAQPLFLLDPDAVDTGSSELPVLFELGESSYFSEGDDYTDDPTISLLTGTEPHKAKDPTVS

Beta-galactosidase = Beta-galactosidase (Escherichia coli, UniProt Q8VNN2); assay: detection-enzyme interference by beta-gal modulators – biochemical, E. coli enzyme, set 3, artefact control for CCR6 antagonist project, dose response (AID 504712); format: functional
Beta-galactosidase, sequence (Q8VNN2 whole entry): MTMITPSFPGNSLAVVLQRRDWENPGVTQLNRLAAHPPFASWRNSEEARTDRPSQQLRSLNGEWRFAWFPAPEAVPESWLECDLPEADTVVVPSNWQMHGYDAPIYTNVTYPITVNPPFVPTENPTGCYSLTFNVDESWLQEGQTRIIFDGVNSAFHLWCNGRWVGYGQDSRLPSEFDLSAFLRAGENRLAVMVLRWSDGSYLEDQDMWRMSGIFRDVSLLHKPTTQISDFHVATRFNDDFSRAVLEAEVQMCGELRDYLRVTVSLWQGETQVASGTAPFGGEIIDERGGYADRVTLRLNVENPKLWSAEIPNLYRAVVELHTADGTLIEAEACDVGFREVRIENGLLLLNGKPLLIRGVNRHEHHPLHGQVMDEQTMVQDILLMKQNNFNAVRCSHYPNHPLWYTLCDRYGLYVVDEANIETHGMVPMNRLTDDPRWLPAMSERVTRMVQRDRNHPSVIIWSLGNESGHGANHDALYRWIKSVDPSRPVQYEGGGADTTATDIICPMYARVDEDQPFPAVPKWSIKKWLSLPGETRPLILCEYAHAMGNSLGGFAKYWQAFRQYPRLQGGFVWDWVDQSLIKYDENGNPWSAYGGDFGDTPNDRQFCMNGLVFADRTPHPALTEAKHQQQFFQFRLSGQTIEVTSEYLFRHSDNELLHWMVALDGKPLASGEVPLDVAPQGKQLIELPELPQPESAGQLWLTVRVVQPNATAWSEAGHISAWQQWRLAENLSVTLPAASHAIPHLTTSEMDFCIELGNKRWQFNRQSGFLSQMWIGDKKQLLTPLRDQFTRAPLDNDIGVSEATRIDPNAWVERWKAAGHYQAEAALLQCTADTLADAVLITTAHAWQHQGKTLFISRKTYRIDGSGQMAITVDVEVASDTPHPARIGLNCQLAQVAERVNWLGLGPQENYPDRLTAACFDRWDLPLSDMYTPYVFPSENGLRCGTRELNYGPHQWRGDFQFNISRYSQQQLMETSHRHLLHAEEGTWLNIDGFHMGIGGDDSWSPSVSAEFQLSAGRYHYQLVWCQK

[2] = Fluorescence Cell-Based Dose Response to Identify Inhibitors of Thrombin Receptor-Activating Peptide SFLLRN-Mediated P-Selectin Induction on Platelets. [Related pubchem assays: 1663 (Primary HTS), 1889 (retest at dose ), 1891 (counterscreen), 1678 (Project Summary)]; format: functional
[3] = Luminescence Cell-Based Dose Confirmation HTS to Identify Inhibitors of Platelet Dense Granule Release. [Related pubchem assays: 1663 (Primary HTS), 1678 (Summary of Project)]; format: functional
Beta Lactamase = Beta Lactamase (Pseudomonas aeruginosa, UniProt Q932Y6); assay: BLA reporter interference, concentration series – BLA reporter cells, FRET fluorescence, artefact control for NOD2-RIPK2 interaction inhibitor project, dose response (AID 651552); format: functional, cell-based
Beta Lactamase, sequence (Q932Y6 whole entry): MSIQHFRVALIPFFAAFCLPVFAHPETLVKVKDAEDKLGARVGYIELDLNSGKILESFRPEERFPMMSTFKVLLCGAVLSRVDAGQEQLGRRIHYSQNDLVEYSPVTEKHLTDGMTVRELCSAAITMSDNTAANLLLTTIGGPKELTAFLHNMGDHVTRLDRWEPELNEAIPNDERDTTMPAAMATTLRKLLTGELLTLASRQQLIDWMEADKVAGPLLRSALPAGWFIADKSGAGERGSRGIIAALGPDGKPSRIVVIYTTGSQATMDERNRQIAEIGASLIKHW

[4] = target: Luciferin 4-monooxygenase (Photinus pyralis, UniProt P08659); assay: inhibition of purified Photinus pyralis luciferase – biochemical, luminescence, dose response (AID 1891)
Luciferin 4-monooxygenase, sequence (P08659 whole entry, the tested form may be a part): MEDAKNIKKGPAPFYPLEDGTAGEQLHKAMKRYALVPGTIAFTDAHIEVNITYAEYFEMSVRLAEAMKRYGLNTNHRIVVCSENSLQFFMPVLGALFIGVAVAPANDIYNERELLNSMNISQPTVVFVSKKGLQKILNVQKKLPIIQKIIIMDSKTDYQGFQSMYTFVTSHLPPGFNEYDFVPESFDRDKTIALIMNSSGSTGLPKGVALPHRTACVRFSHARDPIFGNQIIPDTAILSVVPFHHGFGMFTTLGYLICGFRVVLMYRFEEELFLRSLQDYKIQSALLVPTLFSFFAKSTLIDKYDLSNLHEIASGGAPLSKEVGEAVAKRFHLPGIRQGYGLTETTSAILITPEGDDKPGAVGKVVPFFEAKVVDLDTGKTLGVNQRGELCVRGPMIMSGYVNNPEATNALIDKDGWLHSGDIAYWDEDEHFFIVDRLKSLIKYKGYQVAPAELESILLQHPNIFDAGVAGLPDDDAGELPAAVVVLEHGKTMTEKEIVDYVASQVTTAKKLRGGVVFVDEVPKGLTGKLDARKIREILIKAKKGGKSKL

[5] = Fluorescence-based cell-based high throughput dose response assay for inhibitors of the interaction of nucleotide-binding oligomerization domain containing 2 (NOD2) and the receptor-interacting serine-threonine kinase 2 (RIPK2).; format: functional; details: Homo sapiens
[6] = target: Aryl hydrocarbon receptor (Homo sapiens, UniProt P35869); assay: Luminescence-based cell-based high throughput dose response assay for activators of the Aryl Hydrocarbon Receptor (AHR). [Related pubchem assays: 2796 (Primary screen (AHR activators in singlicate)), 2845 (Confirmation screen (AHR activators in triplicate)), 434939 (Counterscreen (PXR activators in triplicate)), 2804 (Summary (AHR activators))]; format: ADME
Aryl hydrocarbon receptor, sequence (P35869 whole entry): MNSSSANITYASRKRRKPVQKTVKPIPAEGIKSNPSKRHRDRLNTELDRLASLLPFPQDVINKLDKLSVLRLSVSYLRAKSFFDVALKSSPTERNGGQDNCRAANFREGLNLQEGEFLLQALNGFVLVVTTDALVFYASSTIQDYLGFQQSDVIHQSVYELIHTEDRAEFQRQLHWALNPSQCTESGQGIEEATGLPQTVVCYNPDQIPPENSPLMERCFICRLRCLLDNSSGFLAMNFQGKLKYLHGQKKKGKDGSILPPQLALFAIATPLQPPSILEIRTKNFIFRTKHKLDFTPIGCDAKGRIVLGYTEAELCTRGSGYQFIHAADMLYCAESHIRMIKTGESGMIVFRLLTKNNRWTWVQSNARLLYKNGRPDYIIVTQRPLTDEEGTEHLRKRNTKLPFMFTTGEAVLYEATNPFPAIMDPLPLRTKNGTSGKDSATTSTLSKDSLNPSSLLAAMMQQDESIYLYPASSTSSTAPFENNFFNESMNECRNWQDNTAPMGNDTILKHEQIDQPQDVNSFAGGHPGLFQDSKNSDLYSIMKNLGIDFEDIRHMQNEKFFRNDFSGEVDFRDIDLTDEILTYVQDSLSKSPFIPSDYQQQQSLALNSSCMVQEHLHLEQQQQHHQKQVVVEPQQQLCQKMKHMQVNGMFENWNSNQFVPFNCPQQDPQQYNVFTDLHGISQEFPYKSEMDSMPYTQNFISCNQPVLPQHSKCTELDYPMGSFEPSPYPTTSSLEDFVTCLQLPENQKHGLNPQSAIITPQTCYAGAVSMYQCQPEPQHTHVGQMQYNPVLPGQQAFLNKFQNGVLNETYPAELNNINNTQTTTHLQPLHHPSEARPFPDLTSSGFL

Aminopeptidase N = target: T2, Aminopeptidase N (Plasmodium falciparum FcB1/Columbia, UniProt O96935); assay: malaria alanyl aminopeptidase activity blockers – biochemical, fluorogenic H-Leu-NHMec substrate, 1536-well (AID 1445); design: species or system Plasmodium falciparum 3D7, 3D7
T2 sequence (O96935 whole entry): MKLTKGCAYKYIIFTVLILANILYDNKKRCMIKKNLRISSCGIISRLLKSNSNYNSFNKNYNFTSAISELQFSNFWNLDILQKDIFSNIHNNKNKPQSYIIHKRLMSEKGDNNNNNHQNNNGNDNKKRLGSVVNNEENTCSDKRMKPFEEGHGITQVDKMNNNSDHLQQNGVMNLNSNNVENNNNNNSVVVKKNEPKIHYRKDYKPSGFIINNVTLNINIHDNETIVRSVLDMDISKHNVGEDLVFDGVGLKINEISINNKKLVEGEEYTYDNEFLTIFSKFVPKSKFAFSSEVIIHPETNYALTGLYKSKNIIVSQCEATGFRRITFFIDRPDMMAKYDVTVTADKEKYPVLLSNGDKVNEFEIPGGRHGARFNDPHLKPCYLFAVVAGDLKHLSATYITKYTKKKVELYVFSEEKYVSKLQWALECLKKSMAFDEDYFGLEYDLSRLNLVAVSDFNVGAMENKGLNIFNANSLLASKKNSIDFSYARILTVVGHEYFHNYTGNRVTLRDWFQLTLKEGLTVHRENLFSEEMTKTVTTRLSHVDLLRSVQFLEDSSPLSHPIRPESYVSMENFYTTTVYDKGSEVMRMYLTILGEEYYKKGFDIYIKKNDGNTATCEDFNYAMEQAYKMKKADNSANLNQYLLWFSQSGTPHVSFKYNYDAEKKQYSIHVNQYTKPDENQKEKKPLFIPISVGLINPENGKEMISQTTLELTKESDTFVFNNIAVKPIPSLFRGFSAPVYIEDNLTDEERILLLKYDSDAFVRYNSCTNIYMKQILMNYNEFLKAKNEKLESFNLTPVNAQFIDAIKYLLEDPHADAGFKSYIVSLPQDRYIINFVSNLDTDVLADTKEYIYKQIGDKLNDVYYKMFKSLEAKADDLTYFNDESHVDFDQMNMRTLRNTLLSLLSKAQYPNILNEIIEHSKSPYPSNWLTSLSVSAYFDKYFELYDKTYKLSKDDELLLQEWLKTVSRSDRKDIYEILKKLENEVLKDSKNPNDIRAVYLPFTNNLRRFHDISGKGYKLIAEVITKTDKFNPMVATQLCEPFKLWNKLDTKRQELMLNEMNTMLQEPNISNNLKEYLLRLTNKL

Procathepsin L = Procathepsin L (Homo sapiens, UniProt P07711); assay: CTSL1 protease inhibition – biochemical, QFRET, 1536-well, counter-screen for M1/M17 aminopeptidase inhibitor project, dose response (AID 2214)
Procathepsin L, sequence (P07711 whole entry): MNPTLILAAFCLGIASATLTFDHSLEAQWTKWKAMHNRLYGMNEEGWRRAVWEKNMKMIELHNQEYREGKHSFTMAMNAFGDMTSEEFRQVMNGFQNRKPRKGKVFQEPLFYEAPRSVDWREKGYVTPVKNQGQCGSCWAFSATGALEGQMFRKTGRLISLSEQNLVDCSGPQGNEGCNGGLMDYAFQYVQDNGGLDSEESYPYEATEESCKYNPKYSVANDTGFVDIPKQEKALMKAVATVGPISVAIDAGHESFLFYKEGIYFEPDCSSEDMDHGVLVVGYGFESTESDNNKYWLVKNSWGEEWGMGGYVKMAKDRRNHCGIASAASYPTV

Aspartyl aminopeptidase = Aspartyl aminopeptidase (Plasmodium falciparum 3D7, UniProt Q8I2J3); assay: Counterscreen for inhibitors of M1 and M17 aminopeptidases: QFRET-based biochemical high throughput dose response assay for inhibitors of the Plasmodium falciparum M18 Aspartyl Aminopeptidase (PFM18AAP). [Related PubChem assays: 1619 (Screening assay (M17LAP inhibitors).), 1445 (Screening assay (M1AAP inhibitors).)]
Aspartyl aminopeptidase, sequence (Q8I2J3 whole entry): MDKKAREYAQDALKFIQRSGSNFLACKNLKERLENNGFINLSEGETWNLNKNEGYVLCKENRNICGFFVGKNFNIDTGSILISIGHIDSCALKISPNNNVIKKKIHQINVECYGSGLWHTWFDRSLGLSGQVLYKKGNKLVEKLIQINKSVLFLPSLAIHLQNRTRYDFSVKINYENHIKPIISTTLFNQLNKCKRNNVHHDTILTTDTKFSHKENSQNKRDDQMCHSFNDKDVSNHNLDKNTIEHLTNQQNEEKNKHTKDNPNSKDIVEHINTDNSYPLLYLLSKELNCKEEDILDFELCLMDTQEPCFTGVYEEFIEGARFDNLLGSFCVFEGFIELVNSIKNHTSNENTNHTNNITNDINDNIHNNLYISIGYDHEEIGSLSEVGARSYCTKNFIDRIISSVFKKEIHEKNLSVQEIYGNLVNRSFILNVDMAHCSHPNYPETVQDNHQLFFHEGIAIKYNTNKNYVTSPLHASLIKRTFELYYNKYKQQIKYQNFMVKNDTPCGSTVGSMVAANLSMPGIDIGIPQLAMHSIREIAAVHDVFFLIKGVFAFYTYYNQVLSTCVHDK

[7] = target: T3, Adenosylmethionine-8-amino-7-oxononanoate aminotransferase (Mycobacterium tuberculosis, UniProt P9WQ81); assay: Mycobacterium tuberculosis BioA enzyme inhibitor Measured in Biochemical System Using Plate Reader - 2163-02_Inhibitor_Dose_CherryPick_Activity.; format: functional, Mycobacterium tuberculosis UT205
T3 sequence (P9WQ81 whole entry): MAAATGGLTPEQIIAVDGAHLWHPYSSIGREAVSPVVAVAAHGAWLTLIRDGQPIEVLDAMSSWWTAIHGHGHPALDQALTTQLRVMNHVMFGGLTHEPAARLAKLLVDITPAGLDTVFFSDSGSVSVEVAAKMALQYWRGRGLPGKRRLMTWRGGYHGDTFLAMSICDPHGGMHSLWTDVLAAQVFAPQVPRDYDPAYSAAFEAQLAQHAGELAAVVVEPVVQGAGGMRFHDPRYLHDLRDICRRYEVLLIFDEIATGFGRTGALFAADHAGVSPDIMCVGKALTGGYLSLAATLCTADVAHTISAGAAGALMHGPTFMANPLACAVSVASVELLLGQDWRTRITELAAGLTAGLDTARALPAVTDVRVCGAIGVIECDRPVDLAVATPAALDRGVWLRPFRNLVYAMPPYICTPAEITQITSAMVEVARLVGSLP

[8] = target: Potassium voltage-gated channel subfamily KQT member 2 (Rattus norvegicus, UniProt O88943, W236L); assay: potentiation of rat KCNQ2 current – cell-based, automated electrophysiology, mechanism study for KCNQ2 potentiator project, dose response (AID 2603); format: functional
Potassium voltage-gated channel subfamily KQT member 2, sequence (O88943 whole entry W236L): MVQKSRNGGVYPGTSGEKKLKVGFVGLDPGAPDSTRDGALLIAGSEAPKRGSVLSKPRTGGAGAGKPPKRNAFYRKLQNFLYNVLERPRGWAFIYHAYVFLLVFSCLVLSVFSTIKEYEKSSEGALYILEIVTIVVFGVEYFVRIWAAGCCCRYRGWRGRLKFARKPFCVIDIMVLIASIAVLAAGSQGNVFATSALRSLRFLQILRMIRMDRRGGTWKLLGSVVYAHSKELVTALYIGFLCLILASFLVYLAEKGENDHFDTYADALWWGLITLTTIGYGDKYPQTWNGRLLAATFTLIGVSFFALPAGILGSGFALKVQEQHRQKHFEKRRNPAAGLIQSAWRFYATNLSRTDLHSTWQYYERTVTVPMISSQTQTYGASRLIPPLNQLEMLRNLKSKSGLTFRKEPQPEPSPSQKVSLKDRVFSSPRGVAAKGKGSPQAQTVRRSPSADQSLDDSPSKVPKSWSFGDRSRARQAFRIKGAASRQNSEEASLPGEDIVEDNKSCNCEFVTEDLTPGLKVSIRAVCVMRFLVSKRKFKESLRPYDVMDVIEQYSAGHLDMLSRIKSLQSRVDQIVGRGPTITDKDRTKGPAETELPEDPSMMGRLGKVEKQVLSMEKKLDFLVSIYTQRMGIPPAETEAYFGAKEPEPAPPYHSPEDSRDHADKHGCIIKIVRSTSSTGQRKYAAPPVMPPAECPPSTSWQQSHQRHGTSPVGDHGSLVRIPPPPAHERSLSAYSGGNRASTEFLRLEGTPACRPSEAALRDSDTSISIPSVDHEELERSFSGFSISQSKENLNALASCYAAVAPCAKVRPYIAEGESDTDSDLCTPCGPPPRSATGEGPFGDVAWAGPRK

With `Cc1ccc(NN2C(=O)C=C(c3ccccc3)C2=O)cc1` the EC50 [1] was 10.5 µM (active), the IC50 (Beta-galactosidase) was > 66.6 µM (inactive) and the EC50 [2] was < 30 µM (active). For the same compound, the EC50 [3] was 5.06 µM (active), the IC50 (Beta Lactamase) was 28.7 µM (inactive) and the EC50 [4] was > 112 µM (not active). For the same compound, the IC50 [5] was 1.72 µM (active).
With `Cc1ccc(-c2cc(-c3cccs3)[nH]n2)c(O)c1` the EC50 [6] was 1.21 µM (active).
In the case of `O=C(NCc1ccco1)C1CCCN(S(=O)(=O)c2cccc3nonc23)C1` (stereo not drawn), the IC50 (Aminopeptidase N) is reported as 18.6 µM (active), the IC50 (Procathepsin L) is reported as > 59.6 µM (not active) and the IC50 (Aspartyl aminopeptidase) is reported as > 73.5 µM (not active).
With `O=C(Nc1cccnc1)c1ccc(Cl)c(Cl)c1` the AC50 [7] was 3.94 µM (active) and the EC50 [8] was 26.2 µM (active).
